Residues, ends and D or L forms follow the SMILES beside them. Groups on a side chain read outwards from the residue. *: point of attachment. Biotin = O=C1N[C@H]2[C@H](CS[C@H]2CCCCC(=O)*)N1; X1 = CN1C(=O)C[C@H](C(=O)*)[C@H]1c1cccnc1; PEG6 = NCCOCCOCCOCCOCCOCCOCCC(=O)O
Legend:
[1] = tested on: A549 cells; experiment: Cell viability assay (Cell Titer-Glo, 72 hrs); type: cell-based, human; conditions: ATP content
Description: A549 cells were seeded in 50 μL RPMI-1640 medium in black-walled 96-well plates (4,000 cells per well) and allowed to adhere overnight at 37° C. in 5% CO2 and humidified atmosphere. […] The cotinine-duocarmycin and antibody dilutes in 50 μL medium were added to each well, and cultured for 72 hrs. After adding Cell Titer-Glo reagent (Promega Corp.) to each well, luminescence signals were measured using a microplate luminometer (PerkinElmer, Waltham, Mass., USA) according to the manufacturer's instructions. All experiments were conducted in triplicate. The relative cell viability was calculated by dividing by the control luminescence signal [% viability=(Test−Background)/(Control−Background)×100].

[2] = tested on: A549 xenograft tumor; experiment: A549 xenograft tumor growth; type: in vivo, Balb/c-nude mice; conditions: intraperitoneally for five weeks, n=4/group
Description: Six-week-old female Balb/c-nude mice were subcutaneously injected with the A549 (1×10^7 cells) on the left and right flank of each mouse. When the tumor volume reached approximate 150 mm^3, all animals were randomly divided into three groups (n=4/group) and treated for five weeks. […] Then, three times dose of the drugs were injected thrice a week for the following three weeks. Palivizumab was used as an isotype control of the bispecific antibody. DMSO was used as a vehicle control of cotinine-duocarmycin. The tumor volume was measured using digital calipers twice a week in 32 days after injection. Tumor volume was calculated as length×(width)^2×0.5, where the length is the longest axis and the width is the distance perpendicular to the length. Systemic toxicity was evaluated by measuring body weight twice a week. Mice were sacrificed on the day 35 after injection and tumors were dissected and weighted.
To evaluate the in vivo efficacy of ERC6-complexed cotinine-duocarmycin, cetuximab-refractory A549 cells were grafted to mice (n=4/group). […] Drugs were administered to the mice twice a week for two weeks, and then thrice a week for three weeks.

[3] = mouse, in vivo
Description: Blood samples were collected from intra-orbital vein at 0, 1, 24, 48, 72, 96 and 168 hrs post-injection. The samples were left at the room temperature for 2 hrs until the blood coagulated. Subsequently, serum was acquired by centrifuging at 3500 rpm for 15 min at 4° C.
After washing with 0.05% PBST, HRP-conjugated streptavidin (Thermo Fisher Scientific Pierce) was added and cultured for 1 hr at 37° C. After washing, TMB was added to each well and the absorbance was measured at 650 nm.

[4] = tested on: EGFR on the A549 cell surface; experiment: Flow cytometry on A549 cells; type: cell-based, human
Description: A549 cells were seeded in a v-bottom 96-well plate (Corning) in the final concentration of 4×10^5 cells per each sample. […] After washing with the flow cytometry buffer, the cells were cultured with phycoerythrin (PE)-conjugated streptavidin (BD Biosciences Pharminogen, San Diego, Calif., USA) and FITC-conjugated anti-human IgG (Fc specific) antibody (Thermo Fisher Scientific Pierce) in the dark for 1 hr at 37° C. After additional washing with the same buffer, the cells were resuspended in 200 μL PBS, and analyzed through flow cytometry using FACS Canto II instrument equipped with a 488-nm laser (BD Bioscience, San Jose, Calif., USA). 10,000 cells per measurement were detected and data were analyzed with FlowJo software (TreeStar, Ashland, Oreg., USA).

| Compound | cytotoxic / anti-proliferative effect (relative cell viability) [1] | inhibition of tumor growth [2] | half-life [3] [min] | binding activity of cotinine-biotin to A549 cell (streptavidin-PE signal) ([4]; ERC6 present) | binding activity of cotinine-biotin to A549 cell (streptavidin-PE signal) ([4]; mixture with anti-cotinine IgG) | binding activity of cotinine-biotin to A549 cell (streptavidin-PE signal) ([4]; mixture with cetuximab) |
| --- | --- | --- | --- | --- | --- | --- |
| COC(=O)c1cc2c([nH]1)C(=O)C=C1N(C(=O)c3cc4cc(OC)c(OC)c(OC)c4[nH]3)C[C@H]3C[C@]123 [free duocarmycin, duocarmycin, reference compound] | stronger anti-tumor effect than the cotinine-duocarmycin |  |  |  |  |  |
| cotinine-[GSK(duocarmycin)]4K-cotinine [cotinine-duocarmycin] | potent anti-proliferative effect | could not be selectively delivered to the tumor site and inhibit the tumor growth |  |  |  |  |
| CN1C(=O)C[C@H](C(=O)NCCCC[C@H](NC(=O)[C@H](CO)NC(=O)CNC(=O)CNC(=O)CNC(=O)CNC(=O)[C@H](CCCCNC(=O)CCOCCOCCOCCOCCOCCOCCNC(=O)CCCC[C@@H]2SC[C@@H]3NC(=O)N[C@@H]32)NC(=O)[C@H](CO)NC(=O)CNC(=O)CNC(=O)CNC(=O)CNC(=O)[C@H]2CC(=O)N(C)[C@@H]2c2cccnc2)C(=O)O)[C@H]1c1cccnc1 [cotinine-biotin, cotinine-GGGGSK[(dPEG6)-biotin]GGGGSK-cotinine] (X1-GGGGSK([PEG6-Biotin])GGGGSK(X1)-OH) |  |  | 33.4 | showed the binding activity to the A549 cell | did not produce any significant signal | did not produce any significant signal |

— patent US11167037B2, “Antibody drug conjugate platform using bispecific antibody” (SEOUL NATIONAL UNIVERSITY R&DB FOUNDATION, priority 2016, dated 2021)
